Results reported in the NIST ThermoML archive (doi:10.1016/j.jct.2012.11.020).
Numbers after ± are expanded uncertainties.

Tests used:
[1] = 100 kPa, Liquid; for viscosity: Cone and plate viscometry; for mass density: Vibrating tube method; for electrical conductivity: Alternating current cell with electrodes
[2] = xn = mol fraction of the nth substance listed; conditions: 100 kPa, Liquid, x2 = 0; for viscosity: Cone and plate viscometry; for mass density: Vibrating tube method

`CC1COC(=O)O1` (configuration not stated) [4-methyl-1,3-dioxolan-2-one] showed a viscosity ([1]; 283.15 K) of 4.25 mPa·s, a mass density ([1]; 283.15 K) of 1216.3 ± 2.4 kg/m3 and a viscosity ([1]; 293.15 K) of 2.96 mPa·s. It also gave a mass density ([1]; 293.15 K) of 1205.2 ± 2.4 kg/m3, a viscosity ([1]; 303.15 K) of 2.2 mPa·s and a mass density ([1]; 303.15 K) of 1194.5 ± 2.4 kg/m3. It also gave a viscosity ([1]; 313.15 K) of 1.8 mPa·s, a mass density ([1]; 313.15 K) of 1183.9 ± 2.4 kg/m3 and a viscosity ([1]; 323.15 K) of 1.56 mPa·s. It also gave a mass density ([1]; 323.15 K) of 1173.4 ± 2.3 kg/m3, a viscosity ([1]; 333.15 K) of 1.4 mPa·s and a mass density ([1]; 333.15 K) of 1162.9 ± 2.3 kg/m3. For the same molecule, the viscosity ([1]; 343.15 K) was 1.26 mPa·s, the mass density ([1]; 343.15 K) was 1152.3 ± 2.3 kg/m3 and the viscosity ([1]; 353.15 K) was 1.15 mPa·s. It also gave a mass density ([1]; 353.15 K) of 1141.6 ± 2.3 kg/m3.
Work on `CC1COC(=O)O1` (configuration not stated) [4-methyl-1,3-dioxolan-2-one] + C1CC[NH2+]C1.O=[N+]([O-])[O-] yielded a viscosity ([2]; 283.15 K) of 4.25 mPa·s, a mass density ([2]; 283.15 K) of 1216.3 ± 2.4 kg/m3 and a viscosity ([2]; 293.15 K) of 2.96 mPa·s. The mass density ([2]; 293.15 K) was 1205.2 ± 2.4 kg/m3, the viscosity ([2]; 303.15 K) was 2.2 mPa·s and the mass density ([2]; 303.15 K) was 1194.5 ± 2.4 kg/m3. For the same molecule, the viscosity ([2]; 313.15 K) was 1.8 mPa·s, the mass density ([2]; 313.15 K) was 1183.9 ± 2.4 kg/m3 and the viscosity ([2]; 323.15 K) was 1.56 mPa·s. The mass density ([2]; 323.15 K) was 1173.4 ± 2.3 kg/m3, the viscosity ([2]; 333.15 K) was 1.4 mPa·s and the mass density ([2]; 333.15 K) was 1162.9 ± 2.3 kg/m3. For the same molecule, the viscosity ([2]; 343.15 K) was 1.26 mPa·s, the mass density ([2]; 343.15 K) was 1152.3 ± 2.3 kg/m3 and the viscosity ([2]; 353.15 K) was 1.15 mPa·s. For the same molecule, the mass density ([2]; 353.15 K) was 1141.6 ± 2.3 kg/m3.
`C1CC[NH2+]C1.O=[N+]([O-])[O-]` [pyrrolidinium nitrate] showed a viscosity ([1]; 283.15 K) of 58.87 mPa·s, a mass density ([1]; 283.15 K) of 1235 ± 2.8 kg/m3 and an electrical conductivity ([1]; 284.15 K) of 2.93 ± 0.23 S/m. It also gave an electrical conductivity ([1]; 293.15 K) of 3.71 ± 0.3 S/m, a viscosity ([1]; 293.15 K) of 40.29 mPa·s and a mass density ([1]; 293.15 K) of 1228 ± 2.7 kg/m3. The electrical conductivity ([1]; 298.15 K) was 4.22 ± 0.34 S/m, the viscosity ([1]; 303.15 K) was 28.81 mPa·s and the mass density ([1]; 303.15 K) was 1220.4 ± 2.7 kg/m3. The electrical conductivity ([1]; 304.15 K) was 4.94 ± 0.4 S/m, the electrical conductivity ([1]; 313.15 K) was 5.97 ± 0.48 S/m and the viscosity ([1]; 313.15 K) was 20.91 mPa·s. For the same molecule, the mass density ([1]; 313.15 K) was 1213.1 ± 2.7 kg/m3, the electrical conductivity ([1]; 323.15 K) was 7.17 ± 0.57 S/m and the viscosity ([1]; 323.15 K) was 16.7 mPa·s. The mass density ([1]; 323.15 K) was 1205.5 ± 2.7 kg/m3, the electrical conductivity ([1]; 333.15 K) was 8.51 ± 0.68 S/m and the viscosity ([1]; 333.15 K) was 13.3 mPa·s. For the same molecule, the mass density ([1]; 333.15 K) was 1197.2 ± 2.7 kg/m3, the viscosity ([1]; 343.15 K) was 11.17 mPa·s and the mass density ([1]; 343.15 K) was 1190.2 ± 2.6 kg/m3. For the same molecule, the electrical conductivity ([1]; 344.95 K) was 9.3 ± 0.74 S/m, the viscosity ([1]; 353.15 K) was 9.28 mPa·s and the mass density ([1]; 353.15 K) was 1182 ± 2.6 kg/m3. It also gave an electrical conductivity ([1]; 353.65 K) of 10.5 ± 0.84 S/m.
